From the supplement of paper PMC10307832

What was measured:
Assay in all cases: relative viability (nuclei count vs DMSO), 5 days (fraction); higher = more cells survive
LOU-NH91 = system: LOU-NH91
In short: (§1)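 Lung cancer cell lines were pin-tool dosed in 1536-well plates on the day after seeding, with either a lone drug or a fixed anchor-drug dose plus five library-drug doses (not always all listed) in √10 steps. Nuclei were counted on 4× images after 5 days. Relative viability is the ratio of treated-well to vehicle-well nuclei counts, with each value a median of duplicate plates.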

NCI-H1975 = system: NCI-H1975
In short: as §1

LCLC-103H = system: LCLC-103H
In short: as §1

NCI-H1666 = system: NCI-H1666
In short: as §1

HCC-827 = system: HCC-827
In short: as §1

NCI-H23 = system: NCI-H23
In short: as §1

NCI-H1563 = system: NCI-H1563
In short: as §1

NCI-H3122 = system: NCI-H3122
In short: as §1

LXF-289 = system: LXF-289
In short: as §1

NCI-H2405 = system: NCI-H2405
In short: as §1

EPLC-272H = system: EPLC-272H
In short: as §1

NCI-H2085 = system: NCI-H2085
In short: as §1

HCC-44 = system: HCC-44
In short: as §1

LK-2 = system: LK-2
In short: as §1

SW 1573 = system: SW 1573
In short: as §1

EMC-BAC-2 = system: EMC-BAC-2
In short: as §1

HCC-366 = system: HCC-366
In short: as §1

HCC-78 = system: HCC-78
In short: as §1

SK-LU-1 = system: SK-LU-1
In short: as §1

LU99A = system: LU99A
In short: as §1

RERF-LC-KJ = system: RERF-LC-KJ
In short: as §1

NCI-H2126 = system: NCI-H2126
In short: as §1

Compound `C[C@@H]1CN(CC(=O)Nc2ccc3c(c2)Cc2cccc(-c4cc(=O)cc(N5CCOCC5)o4)c2S3)C[C@H](C)O1` + Cc1nc(NC(=O)N2CCC[C@H]2C(N)=O)sc1-c1ccnc(C(C)(C)C(F)(F)F)c1 [Alpelisib] (partner 2 µM) has a relative viability (LOU-NH91; first compound 0.04 µM) of 0.756, a relative viability (LOU-NH91; first compound 0.1265 µM) of 0.72 and a relative viability (LOU-NH91; first compound 0.4 µM) of 0.692. For the same compound, the relative viability (LOU-NH91; first compound 4 µM) was 0.689, the relative viability (NCI-H1975; first compound 0.04 µM) was 0.666 and the relative viability (NCI-H1975; first compound 0.1265 µM) was 0.587. The relative viability (NCI-H1975; first compound 0.4 µM) was 0.551, the relative viability (NCI-H1975; first compound 4 µM) was 0.438 and the relative viability (LCLC-103H; first compound 0.04 µM) was 1.02. The relative viability (LCLC-103H; first compound 0.1265 µM) was 0.892, the relative viability (LCLC-103H; first compound 0.4 µM) was 0.845 and the relative viability (LCLC-103H; first compound 4 µM) was 1.02. The relative viability (NCI-H1666; first compound 0.04 µM) was 1.17, the relative viability (NCI-H1666; first compound 0.1265 µM) was 1.12 and the relative viability (NCI-H1666; first compound 0.4 µM) was 0.964. The relative viability (NCI-H1666; first compound 4 µM) was 0.654, the relative viability (HCC-827; first compound 0.04 µM) was 1.02 and the relative viability (HCC-827; first compound 0.1265 µM) was 0.988. The relative viability (HCC-827; first compound 0.4 µM) was 0.938, the relative viability (HCC-827; first compound 4 µM) was 0.978 and the relative viability (NCI-H23; first compound 0.04 µM) was 0.715. It also gave a relative viability (NCI-H23; first compound 0.1265 µM) of 0.639, a relative viability (NCI-H23; first compound 0.4 µM) of 0.624 and a relative viability (NCI-H23; first compound 4 µM) of 0.727. For the same compound, the relative viability (NCI-H1563; first compound 0.04 µM) was 0.942, the relative viability (NCI-H1563; first compound 0.1265 µM) was 0.918 and the relative viability (NCI-H1563; first compound 0.4 µM) was 0.748. It also gave a relative viability (NCI-H1563; first compound 4 µM) of 0.753, a relative viability (NCI-H3122; first compound 0.04 µM) of 0.861 and a relative viability (NCI-H3122; first compound 0.1265 µM) of 0.682. The relative viability (NCI-H3122; first compound 0.4 µM) was 0.629, the relative viability (NCI-H3122; first compound 4 µM) was 0.699 and the relative viability (LXF-289; first compound 0.04 µM) was 1.04. It also gave a relative viability (LXF-289; first compound 0.1265 µM) of 1, a relative viability (LXF-289; first compound 0.4 µM) of 0.996 and a relative viability (LXF-289; first compound 4 µM) of 1.02. For the same compound, the relative viability (NCI-H2405; first compound 0.04 µM) was 0.899, the relative viability (NCI-H2405; first compound 0.1265 µM) was 0.818 and the relative viability (NCI-H2405; first compound 0.4 µM) was 0.769. The relative viability (NCI-H2405; first compound 4 µM) was 0.698, the relative viability (EPLC-272H; first compound 0.04 µM) was 0.928 and the relative viability (EPLC-272H; first compound 0.1265 µM) was 0.806. It also gave a relative viability (EPLC-272H; first compound 0.4 µM) of 0.857, a relative viability (EPLC-272H; first compound 4 µM) of 1.1 and a relative viability (NCI-H2085; first compound 0.04 µM) of 0.99. It also gave a relative viability (NCI-H2085; first compound 0.1265 µM) of 0.897, a relative viability (NCI-H2085; first compound 0.4 µM) of 0.793 and a relative viability (NCI-H2085; first compound 4 µM) of 0.7. The relative viability (HCC-44; first compound 0.04 µM) was 0.774, the relative viability (HCC-44; first compound 0.1265 µM) was 0.744 and the relative viability (HCC-44; first compound 0.4 µM) was 0.615. The relative viability (HCC-44; first compound 4 µM) was 0.582, the relative viability (LK-2; first compound 0.1265 µM) was 1.11 and the relative viability (LK-2; first compound 0.4 µM) was 1.18. The relative viability (LK-2; first compound 4 µM) was 1.28, the relative viability (SW 1573; first compound 0.04 µM) was 0.867 and the relative viability (SW 1573; first compound 0.1265 µM) was 0.852. It also gave a relative viability (SW 1573; first compound 0.4 µM) of 0.771, a relative viability (SW 1573; first compound 4 µM) of 0.753 and a relative viability (EMC-BAC-2; first compound 0.04 µM) of 0.748. For the same compound, the relative viability (EMC-BAC-2; first compound 0.1265 µM) was 0.771, the relative viability (EMC-BAC-2; first compound 0.4 µM) was 0.726 and the relative viability (EMC-BAC-2; first compound 4 µM) was 0.73. For the same compound, the relative viability (HCC-366; first compound 0.04 µM) was 0.379, the relative viability (HCC-366; first compound 0.1265 µM) was 0.414 and the relative viability (HCC-366; first compound 0.4 µM) was 0.315. For the same compound, the relative viability (HCC-366; first compound 4 µM) was 0.368, the relative viability (HCC-78; first compound 0.04 µM) was 0.303 and the relative viability (HCC-78; first compound 0.1265 µM) was 0.3. The relative viability (HCC-78; first compound 0.4 µM) was 0.278, the relative viability (HCC-78; first compound 4 µM) was 0.33 and the relative viability (SK-LU-1; first compound 0.04 µM) was 1.21. It also gave a relative viability (SK-LU-1; first compound 0.1265 µM) of 1.05, a relative viability (SK-LU-1; first compound 0.4 µM) of 0.936 and a relative viability (SK-LU-1; first compound 4 µM) of 0.645. The relative viability (LU99A; first compound 0.04 µM) was 0.475, the relative viability (LU99A; first compound 0.1265 µM) was 0.532 and the relative viability (LU99A; first compound 0.4 µM) was 0.567. For the same compound, the relative viability (LU99A; first compound 4 µM) was 0.566, the relative viability (RERF-LC-KJ; first compound 0.04 µM) was 0.869 and the relative viability (RERF-LC-KJ; first compound 0.1265 µM) was 0.764. It also gave a relative viability (RERF-LC-KJ; first compound 0.4 µM) of 0.774, a relative viability (RERF-LC-KJ; first compound 4 µM) of 0.792 and a relative viability (NCI-H2126; first compound 0.04 µM) of 0.807. It also gave a relative viability (NCI-H2126; first compound 0.1265 µM) of 0.765, a relative viability (NCI-H2126; first compound 0.4 µM) of 0.738 and a relative viability (NCI-H2126; first compound 4 µM) of 0.762.

`CC(C)Oc1cc(Nc2nc(N[C@@H](C)c3ccc(F)cn3)ncc2Cl)n[nH]1` [AZ23] + C[C@]1(O)C[C@@H](c2nc(-c3ccc4ccc(-c5ccccc5)nc4c3)c3c(N)nccn32)C1 [Linsitinib] (partner 1 µM) gave a relative viability (LOU-NH91; first compound 0.01 µM) of 0.85, a relative viability (LOU-NH91; first compound 0.03162 µM) of 0.966 and a relative viability (LOU-NH91; first compound 0.3162 µM) of 0.917. For the same compound, the relative viability (NCI-H1975; first compound 0.01 µM) was 1.13, the relative viability (NCI-H1975; first compound 0.03162 µM) was 1.06 and the relative viability (NCI-H1975; first compound 0.3162 µM) was 0.972. For the same compound, the relative viability (LCLC-103H; first compound 0.01 µM) was 1.07, the relative viability (LCLC-103H; first compound 0.03162 µM) was 1.03 and the relative viability (LCLC-103H; first compound 0.3162 µM) was 1.15. For the same compound, the relative viability (NCI-H1666; first compound 0.01 µM) was 0.719, the relative viability (NCI-H1666; first compound 0.03162 µM) was 0.943 and the relative viability (NCI-H1666; first compound 0.3162 µM) was 0.775. It also gave a relative viability (HCC-827; first compound 0.01 µM) of 1, a relative viability (HCC-827; first compound 0.03162 µM) of 1.04 and a relative viability (HCC-827; first compound 0.3162 µM) of 0.93. The relative viability (NCI-H23; first compound 0.03162 µM) was 0.697, the relative viability (NCI-H23; first compound 0.3162 µM) was 0.596 and the relative viability (NCI-H1563; first compound 0.01 µM) was 1.14. The relative viability (NCI-H1563; first compound 0.03162 µM) was 1.19, the relative viability (NCI-H1563; first compound 0.3162 µM) was 1.08 and the relative viability (NCI-H3122; first compound 0.01 µM) was 1.01. It also gave a relative viability (NCI-H3122; first compound 0.03162 µM) of 1.01, a relative viability (NCI-H3122; first compound 0.3162 µM) of 1.06 and a relative viability (LXF-289; first compound 0.01 µM) of 1.13. For the same compound, the relative viability (LXF-289; first compound 0.03162 µM) was 1.1, the relative viability (LXF-289; first compound 0.3162 µM) was 0.941 and the relative viability (NCI-H2405; first compound 0.01 µM) was 0.976. The relative viability (NCI-H2405; first compound 0.03162 µM) was 0.902, the relative viability (NCI-H2405; first compound 0.3162 µM) was 0.873 and the relative viability (EPLC-272H; first compound 0.01 µM) was 1.26. It also gave a relative viability (EPLC-272H; first compound 0.03162 µM) of 1.22, a relative viability (NCI-H2085; first compound 0.01 µM) of 1.03 and a relative viability (NCI-H2085; first compound 0.03162 µM) of 1.02. It also gave a relative viability (NCI-H2085; first compound 0.3162 µM) of 0.761, a relative viability (HCC-44; first compound 0.01 µM) of 0.684 and a relative viability (HCC-44; first compound 0.03162 µM) of 0.74. It also gave a relative viability (HCC-44; first compound 0.3162 µM) of 0.632, a relative viability (LK-2; first compound 0.01 µM) of 0.325 and a relative viability (LK-2; first compound 0.03162 µM) of 0.538. The relative viability (LK-2; first compound 0.3162 µM) was 0.5, the relative viability (SW 1573; first compound 0.01 µM) was 0.786 and the relative viability (SW 1573; first compound 0.03162 µM) was 0.937. It also gave a relative viability (SW 1573; first compound 0.3162 µM) of 0.691, a relative viability (EMC-BAC-2; first compound 0.01 µM) of 1.09 and a relative viability (EMC-BAC-2; first compound 0.03162 µM) of 0.814. It also gave a relative viability (EMC-BAC-2; first compound 0.3162 µM) of 0.884, a relative viability (HCC-366; first compound 0.01 µM) of 0.596 and a relative viability (HCC-366; first compound 0.03162 µM) of 0.902. The relative viability (HCC-366; first compound 0.3162 µM) was 0.56, the relative viability (HCC-78; first compound 0.01 µM) was 0.495 and the relative viability (HCC-78; first compound 0.03162 µM) was 0.431. It also gave a relative viability (HCC-78; first compound 0.3162 µM) of 0.434, a relative viability (SK-LU-1; first compound 0.01 µM) of 0.893 and a relative viability (SK-LU-1; first compound 0.03162 µM) of 1.16. The relative viability (SK-LU-1; first compound 0.3162 µM) was 0.932, the relative viability (LU99A; first compound 0.01 µM) was 0.534 and the relative viability (LU99A; first compound 0.03162 µM) was 0.579. The relative viability (LU99A; first compound 0.3162 µM) was 0.593, the relative viability (RERF-LC-KJ; first compound 0.01 µM) was 0.833 and the relative viability (RERF-LC-KJ; first compound 0.03162 µM) was 0.992. For the same compound, the relative viability (RERF-LC-KJ; first compound 0.3162 µM) was 0.987, the relative viability (NCI-H2126; first compound 0.01 µM) was 0.737 and the relative viability (NCI-H2126; first compound 0.03162 µM) was 0.739. It also gave a relative viability (NCI-H2126; first compound 0.3162 µM) of 0.684.
